Where a name gives a salt, the structure may show the parent alone.

This test deals with catalytic domain of human PARP14 (Homo sapiens (Human), UniProt Q460N5). Kind of test: Enzymatic assay for inhibition of PARP14 (DELFIA, auto-modification with biotin-NAD). The class given is biochemical. The settings on record: auto-modification of PARP14 by biotin-NAD, 50 nM PARP14, 3 μM biotin-NAD. A digest of the protocol: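 DELFIA auto-modification read-out: europium-streptavidin bound to biotin-NAD incorporated onto nickel-captured His-TEV PARP14 catalytic domain. Compound preincubated 30 min, then 50 nM enzyme with 3 μM biotin-NAD reacted 3 h, all at 25 °C, pH 8, then NAD quench. Percent inhibition normalized to rucaparib/DMSO wells, fitted (4- or 3-parameter) for IC50.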
Chain of catalytic domain of human PARP14 (Q460N5 1611-1801): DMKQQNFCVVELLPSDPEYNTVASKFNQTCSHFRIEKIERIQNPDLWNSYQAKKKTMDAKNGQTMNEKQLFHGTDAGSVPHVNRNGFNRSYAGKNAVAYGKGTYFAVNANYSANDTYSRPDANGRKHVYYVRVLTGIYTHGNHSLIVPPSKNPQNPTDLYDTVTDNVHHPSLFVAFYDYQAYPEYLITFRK
Usually IC50 stands for the concentration that gives 50% inhibition. For the compound `Cc1cccnc1CN1CCC(SCc2nc3c(C)cccc3c(=O)[nH]2)CC1` [Example 146, 8-Methyl-2-(((1-((3-methylpyridin-2-yl)methyl)piperidin-4-yl)thio)methyl)quinazolin-4(3H)-one bistrifluoroacetate], the half-maximal inhibitory concentration (IC50) was less than 1000 nM.

Regarding `Cc1nn(C)cc1CN1CCC(SCc2nc3c(C)cccc3c(=O)[nH]2)CC1` [Example 144, 2-(((1-((1,3-Dimethyl-1H-pyrazol-4-yl)methyl)piperidin-4-yl)thio)methyl)-8-methylquinazolin-4(3H)-one trifluoroacetate], the IC50 fell in the range of 1000 to 10000 nM.

Compound `Cc1cccc2c(=O)[nH]c(CSC3CCN(Cc4ccc5c(c4)OCCN5C)CC3)nc12` [Example 158, 8-Methyl-2-(((1-((4-methyl-3,4-dihydro-2H-benzo[b][1,4]oxazin-7-yl)methyl)piperidin-4-yl)thio)methyl)quinazolin-4(3H)-one trifluoroacetate] yielded an IC50 of 1000 to 10000 nM.

As to `Cc1cccc2c(=O)[nH]c(CSC3CCN(C(=O)[C@@H](N)CCCCN)CC3)nc12` [Example 171, 2-(((1-(L-Lysyl)piperidin-4-yl)thio)methyl)-8-methylquinazolin-4(3H)-one Dihydrochloride], the IC50 is less than 1000 nM.

As for `O=c1[nH]c(CSC2CCOCC2)nc2cc(N3CCOCC3)ccc12` [Example 111, 7-Morpholino-2-(((tetrahydro-2H-pyran-4-yl)thio)methyl)quinazolin-4(3H)-one], the IC50 fell in the range of 1000 to 10000 nM.

`Cc1cccc2c(=O)[nH]c(CSC3CCN(C(=O)CN)CC3)nc12` [Example 166, 2-(((1-Glycylpiperidin-4-yl)thio)methyl)-8-methylquinazolin-4(3H)-one Hydrochloride]: the IC50 is less than 1000 nM.

For `Cc1ccc(F)c2c(=O)[nH]c(CSC3CCOCC3)nc12` [Example 8], the IC50 was less than 1000 nM.

`Cc1cccc2c(=O)[nH]c(CSC3CCC(CN(C)C)CC3)nc12` (stereo not drawn) [Example 67, 2-(((4-((Dimethylamino)methyl)cyclohexyl)thio)methyl)-8-methylquinazolin-4(3H)-one trifluoroacetate] showed a 50% inhibitory concentration (IC50) of less than 1000 nM.

For `O=c1[nH]c(CS[C@H]2CCNC[C@H]2F)nc2cc(NC3CCCC3)cc(F)c12` (relative stereo) [Example 212, 7-(Cyclopentylamino)-5-fluoro-2-((((cis)-3-fluoropiperidin-4-yl)thio)methyl)quinazolin-4(3H)-one Hydrochloride], the IC50 is less than 1000 nM.

`O=c1[nH]c(CS[C@H]2CC[C@H](O)CC2)nc2cc(NC3CCCC3)ccc12` [Example 102, 7-(Cyclopentylamino)-2-(((trans-4-hydroxycyclohexyl)thio)methyl) quinazolin-4(3H)-one] registered a half-inhibitory concentration (IC50) of less than 1000 nM.

For `O=c1[nH]c(CSC2CCN(CC(F)(F)F)CC2)nc2cc(NC3CCCC3)cc(F)c12` [Example 263, 7-(Cyclopentylamino)-5-fluoro-2-(((1-(2,2,2-trifluoroethyl)piperidin-4-yl)thio)methyl)quinazolin-4(3H)-one], the IC50 was less than 1000 nM.

As to `CN1CC[C@H](COc2cc(F)c3c(=O)[nH]c(CSC4CCOCC4)nc3c2)[C@@H](F)C1` (relative stereo) [Example 326, 5-Fluoro-7-(((trans)-3-fluoro-1-methylpiperidin-4-yl)methoxy)-2-(((tetrahydro-2H-pyran-4-yl)thio)methyl)quinazolin-4(3H)-one], the concentration for half-maximal inhibition (IC50) was less than 1000 nM.

Compound `O=c1[nH]c(CSC2CCC(O)CC2)nc2cc(Nc3ccccc3)ccc12` (stereo not drawn) [Example 97, 2-(((4-Hydroxycyclohexyl)thio)methyl)-7-(phenylamino)quinazolin-4(3H)-one] displayed an IC50 of 1000 to 10000 nM.

As for `Cc1cccc2c(=O)[nH]c(CS[C@@H]3CC[C@@H](CCN)C3)nc12` (relative stereo) [Example 183, 2-((((trans)-3-(2-aminoethyl)cyclopentyl)thio)methyl)-8-methylquinazolin-4(3H)-one], the IC50 lay within 1000 to 10000 nM.

`Cc1cccc2c(=O)[nH]c(CSC3CCNC3)nc12` (stereo not drawn) [Example 15, 8-Methyl-2-((pyrrolidin-3-ylthio)methyl)quinazolin-4(3H)-one trifluoroacetate] gave an IC50 of 1000 to 10000 nM.

In turn, `NC[C@H]1CC[C@@H](SCc2nc3cc(NC4CCCC4)cc(F)c3c(=O)[nH]2)CO1` (relative stereo) [Example 242, 2-((((cis)-6-(Aminomethyl)tetrahydro-2H-pyran-3-yl)thio)methyl)-7-(cyclopentylamino)-5-fluoroquinazolin-4(3H)-one bis Hydrochloride] displayed an IC50 of 1000 to 10000 nM.

`O=c1[nH]c(CSC2CCC(F)(F)CC2)nc2cc(OCC3CCOCC3)cc(F)c12` [Example 366] registered an IC50 of less than 1000 nM.

`CN1CCN([C@H]2CC[C@H](Nc3cc4nc(CSC5CCOCC5)[nH]c(=O)c4c(F)c3F)CC2)CC1` [Example 346] registered an IC50 of less than 1000 nM.

Compound `Cc1cccc2c(=O)[nH]c(CSC3CCN(C[C@@H](O)CO)CC3)nc12` [Example 160, (R)-2-(((1-(2,3-Dihydroxypropyl)piperidin-4-yl)thio)methyl)-8-methyl quinazolin-4(3H)-one Trifluoroacetate] registered an IC50 of 1000 to 10000 nM.

Consider `Cc1ccc(F)c2c(=O)[nH]c(CS[C@H]3CC[C@@H](O)CC3)nc12` [Example 58, 5-Fluoro-2-(((cis-4-hydroxycyclohexyl)thio)methyl)-8-methylquinazolin-4(3H)-one], for which the IC50 was less than 1000 nM.

Consider `O=c1[nH]c(CSC2CCOCC2)nc2cc(NC3CCN(C4COC4)CC3)cc(F)c12` [Example 302, 5-Fluoro-7-((1-(oxetan-3-yl)piperidin-4-yl)amino)-2-(((tetrahydro-2H-pyran-4-yl)thio)methyl)quinazolin-4(3H)-one], for which the IC50 is less than 1000 nM.

In the case of `O=c1[nH]c(CS[C@H]2CC[C@H](C(=O)O)CC2)nc2cc(NC3CCCC3)cc(F)c12` [Example 217, trans-4-(((7-(Cyclopentylamino)-5-fluoro-4-oxo-3,4-dihydroquinazolin-2-yl)methyl)thio)cyclohexane-1-carboxylic acid], the IC50 was less than 1000 nM.

On to `O=c1[nH]c(CSC2CCOCC2)nc2cc(SCC3CCOCC3)cc(F)c12` [Example 370], for which the half-inhibitory concentration (IC50) was less than 1000 nM.

Compound `O=c1[nH]c(CSC2CCNCC2)nc2cc(NC3CCCC3)ccc12` [Example 179, 7-(cyclopentylamino)-2-((piperidin-4-ylthio)methyl)quinazolin-4(3H)-one] yielded an IC50 of less than 1000 nM.

Compound `O=c1[nH]c(CS[C@H]2C[C@@H](O)C2)nc2cc(OCC3CCOCC3)cc(F)c12` [Example 405] came in with an IC50 of less than 1000 nM.

Compound `O=c1[nH]c(CSC2CCOCC2)nc2cc(NC3CCCCC3)ccc12` [Example 108, 7-(Cyclohexylamino)-2-(((tetrahydro-2H-pyran-4-yl)thio)methyl)quinazolin-4(3H)-one] yielded an IC50 of less than 1000 nM.

For `O=c1[nH]c(CSC2CCOCC2)nc2cc(NCC3CC3)c(F)c(F)c12` [Example 337], the IC50 was less than 1000 nM.

As to `O=c1[nH]c(CS[C@H]2CC[C@H](O)CC2)nc2cc(N[C@@H]3CCC[C@@H]3F)cc(F)c12` (relative stereo) [Example 341], the half-maximal inhibitory concentration (IC50) was less than 1000 nM.

As to `O=c1[nH]c(CSC2CCOCC2)nc2cc(NC3CCCCC3)cc(F)c12` [Example 247, 7-(Cyclohexylamino)-5-fluoro-2-(((tetrahydro-2H-pyran-4-yl)thio)methyl)quinazolin-4(3H)-one], the IC50 is less than 1000 nM.

Consider `CN1CC[C@@H](SCc2nc3cc(NC4CCCC4)cc(F)c3c(=O)[nH]2)[C@@H](F)C1` (relative stereo) [Example 413], for which the 50% inhibitory concentration (IC50) was less than 1000 nM.

Compound `CC(=O)N1CCC(SCc2nc3cc(N[C@@H]4CCCN(S(C)(=O)=O)C4)ccc3c(=O)[nH]2)CC1` [Example 268, (R)-2-(((1-acetylpiperidin-4-yl)thio)methyl)-7-((1-(methylsulfonyl)piperidin-3-yl)amino)quinazolin-4(3H)-one] gave an IC50 of less than 1000 nM.

`Nc1cnn(-c2ccc3c(=O)[nH]c(CSC4CCOCC4)nc3c2)c1` [Example 93, 7-(4-Amino-1H-pyrazol-1-yl)-2-(((tetrahydro-2H-pyran-4-yl)thio)methyl) quinazolin-4(3H)-one Trifluoroacetate] returned an IC50 greater than 10000 nM.

`CO[C@H]1CC[C@H](Nc2cc3nc(CS[C@H]4CC[C@H](O)CC4)[nH]c(=O)c3c(F)c2F)CC1` [Example 377] yielded an IC50 of less than 1000 nM.

`O=c1[nH]c(CSC2CCOCC2)nc2cc(OC[C@H]3CCNC[C@@H]3F)cc(F)c12` (relative stereo) [Example 352] yielded a 50% inhibitory concentration (IC50) of 1000 to 10000 nM.

`Cc1cccc2c(=O)[nH]c(CSC3CCN(Cc4c[nH]c5ccncc45)CC3)nc12` [Example 151, 2-(((1-((1H-Pyrrolo[3,2-c]pyridin-3-yl)methyl)piperidin-4-yl)thio)methyl)-8-methylquinazolin-4(3H)-one bistrifluoroacetate] yielded an IC50 of less than 1000 nM.

Regarding `CC(=O)N[C@H]1CC[C@H](SCc2nc3cc(OCC4CC4)cc(F)c3c(=O)[nH]2)CC1` [Example 330, N-((trans)-4-(((7-(Cyclopropylmethoxy)-5-fluoro-4-oxo-3,4-dihydroquinazolin-2-yl)methyl)thio)cyclohexyl)acetamide], the IC50 is less than 1000 nM.

The compound `O=c1[nH]c(CSC2CCS(=O)(=O)CC2)nc2cc(NC3CCCC3)c(F)c(F)c12` [Example 316, 7-(Cyclopentylamino)-2-(((1,1-dioxidotetrahydro-2H-thiopyran-4-yl)thio)methyl)-5,6-difluoroquinazolin-4(3H)-one] displayed an IC50 of less than 1000 nM.

Take `O=c1[nH]c(CSC2CCOCC2)nc2cc(NC3CCCC3(F)F)cc(F)c12` (stereo not drawn) [Example 231, 7-((2,2-Difluorocyclopentyl)amino)-5-fluoro-2-(((tetrahydro-2H-pyran-4-yl)thio)methyl)quinazolin-4(3H)-one]: the IC50 was less than 1000 nM.

With `O=c1[nH]c(CSC2CCOCC2)nc2cc(NC3CCC3)ccc12` [Example 122, 7-(Cyclobutylamino)-2-(((tetrahydro-2H-pyran-4-yl)thio)methyl)quinazolin-4(3H)-one], the IC50 is less than 1000 nM.
